Test system: wild type and multidrug resistant HIV strains
Test: Antiviral activity against wild type HIV and multidrug resistant patient isolates (PHA-PBMC, p24 Gag production)
Assay type: cell-based
Conditions: for antiviral activity against HIV derived from patient isolates that contain multiple mutations, compared with wild type HIV strains: patients never exposed to the tested compounds; for antiviral potency against multidrug resistant HIV strains compared with wild type: wild type vs multidrug resistant HIV strains
Text: IC50 's for broad spectrum protease inhibitors can be measured against wild type HIV and clinically isolated mutant HIV isolates, utilizing the PHA-PBMC exposed to HIV-1 (50 TCID50 dose/[…] PBMC) as target cells and using the inhibition of p24 Gag protein production as an endpoint. The amounts of p24 antigen produced by the cells can be determined on day 7 in culture using a commercially available radioimmunoassay kit.

Row | SMILES | antiviral activity against HIV derived from patient isolates that contain multiple mutations, compared with wild type HIV strains | antiviral potency against multidrug resistant HIV strains compared with wild type
1 | COc1ccc(S(=O)(=O)N(CC(C)C)C[C@@H](O)[C@H](Cc2ccccc2)NC(=O)O[C@H]2CO[C@H]3OCC[C@H]32)cc1 [Compound 1] | equivalent to their activity against wild type HIV strains | equally effective against wild type and mutant HIV strains
2 | CC(C)CN(C[C@@H](O)[C@H](Cc1ccccc1)NC(=O)O[C@H]1CCOC1)S(=O)(=O)c1ccc(N)cc1 [Compound 2, Amprenavir] | much less effective against the same mutant viruses | dramatically less potent against the multidrug resistant strains of HIV
3 | CC(C)(C)NC(=O)[C@@H]1C[C@@H]2CCCC[C@@H]2CN1C[C@@H](O)[C@H](Cc1ccccc1)NC(=O)[C@H](CC(N)=O)NC(=O)c1ccc2ccccc2n1 [Compound 4, Saquinavir] | – | dramatically less potent against the multidrug resistant strains of HIV
4 | CC(C)c1nc(CN(C)C(=O)N[C@H](C(=O)N[C@@H](Cc2ccccc2)C[C@H](O)[C@H](Cc2ccccc2)NC(=O)OCc2cncs2)C(C)C)cs1 [Compound 5, Ritonavir] | – | dramatically less potent against the multidrug resistant strains of HIV
5 | CC(C)(C)NC(=O)[C@@H]1CN(Cc2cccnc2)CCN1C[C@@H](O)C[C@@H](Cc1ccccc1)C(=O)N[C@H]1c2ccccc2C[C@H]1O [Compound 6, Indinavir] | – | dramatically less potent against the multidrug resistant strains of HIV
6 | Cc1c(O)cccc1C(=O)N[C@@H](CSc1ccccc1)[C@H](O)CN1C[C@H]2CCCC[C@H]2C[C@H]1C(=O)NC(C)(C)C [Compound 7, Nelfinavir] | – | dramatically less potent against the multidrug resistant strains of HIV

Source: patent publication US20040009890A1, “Broad spectrum inhibitors” (priority 2002, published 2004)
